Structures are written as SMILES. Where “and” joins values, the source holds several entries; their conditions need not be identical. Equal entries are not always repeated. Structures can show the parent of a compound that is named as a salt. Marks after values point to notes of the source that are not given here.

One experiment has as its system male Balb/cJ mice. The experiment is described as follows: Forced swim test in mice. The class given is in vivo. The protocol:
The subjects were male Balb/cJ mice obtained from Jackson Laboratory, Bar Harbor, Me. Mice were housed 4 per cage under controlled conditions of temperature, relative humidity and light-dark cycle with free access to food and water.
Mice were individually placed into clear glass cylinders (i.e., 15 cm tall×10 cm wide, 1 L beakers) containing 23±1° C. water 12 cm deep (approximately 800 mL). The time the animal spent immobile was recorded over a 6 min trial. Immobility was described as the postural position of floating in the water.
The mice were injected intraperitoneally (i.p.) 30 minutes before the start of the test. In another set of experiments, the test compounds were administered orally (p.o.) 30 minutes before the start of the test.
The length of time spent floating was analyzed by Analysis of Variance (ANOVA) with dose of drug as the between-subject factor and time spent immobile across the 6 min test as the dependent variable. Post-hoc comparisons between the treatment groups and control group were made using Fisher's PLSD test. A significance level of 5% was used throughout.

Experiment [1] concerns the target α-Bungarotoxin-insensitive (α4β2) neuronal nicotinic receptor (Rattus norvegicus, UniProt P09483+P12390). The experiment is described as follows: biochemical. As to conditions: read-out: percent inhibition of the control radioligand specific binding.
The target of a further experiment is T1, α4β4 nicotinic receptor (Rattus norvegicus, UniProt P09483+P12392).
T1 construct: expressed in transfected cells; host or cells: stably transfected cell lines (e.g., HEK293, COS, CHO, NIH3T3)
T1 sequence (P09483 31-630): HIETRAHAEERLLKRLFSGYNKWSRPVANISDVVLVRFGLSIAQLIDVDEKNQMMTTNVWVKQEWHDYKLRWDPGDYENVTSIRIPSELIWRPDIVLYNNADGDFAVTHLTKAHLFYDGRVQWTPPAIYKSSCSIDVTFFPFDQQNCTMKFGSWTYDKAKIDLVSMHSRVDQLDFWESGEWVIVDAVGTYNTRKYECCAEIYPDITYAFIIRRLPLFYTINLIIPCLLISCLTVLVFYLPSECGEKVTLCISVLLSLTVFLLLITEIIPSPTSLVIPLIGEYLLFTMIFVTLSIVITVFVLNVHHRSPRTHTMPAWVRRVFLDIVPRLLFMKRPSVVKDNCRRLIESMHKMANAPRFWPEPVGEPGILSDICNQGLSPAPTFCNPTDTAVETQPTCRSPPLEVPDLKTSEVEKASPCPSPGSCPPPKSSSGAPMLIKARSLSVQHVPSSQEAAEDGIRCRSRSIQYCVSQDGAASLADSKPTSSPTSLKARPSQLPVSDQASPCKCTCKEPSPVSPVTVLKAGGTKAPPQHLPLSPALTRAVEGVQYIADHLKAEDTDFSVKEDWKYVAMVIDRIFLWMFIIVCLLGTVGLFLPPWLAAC
T1 sequence (P12392 21-495): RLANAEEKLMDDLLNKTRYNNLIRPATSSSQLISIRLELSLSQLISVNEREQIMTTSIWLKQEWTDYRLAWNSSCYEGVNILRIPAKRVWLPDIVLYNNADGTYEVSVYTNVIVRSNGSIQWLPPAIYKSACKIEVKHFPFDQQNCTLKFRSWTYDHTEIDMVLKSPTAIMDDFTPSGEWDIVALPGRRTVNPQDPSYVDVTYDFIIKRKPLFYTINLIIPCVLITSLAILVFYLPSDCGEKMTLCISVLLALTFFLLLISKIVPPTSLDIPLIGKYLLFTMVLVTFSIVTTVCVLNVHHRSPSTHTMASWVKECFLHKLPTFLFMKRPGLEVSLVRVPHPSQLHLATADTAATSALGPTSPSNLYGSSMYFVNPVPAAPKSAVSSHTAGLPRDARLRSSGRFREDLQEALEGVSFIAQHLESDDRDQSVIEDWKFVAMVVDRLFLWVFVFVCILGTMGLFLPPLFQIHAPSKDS
In kind it is binding.

α-Bungarotoxin-insensitive (α4β2) neuronal nicotinic receptor, sequence (P09483 31-630): as the sequence (P09483 31-630) above
α-Bungarotoxin-insensitive (α4β2) neuronal nicotinic receptor, sequence (P12390 25-500): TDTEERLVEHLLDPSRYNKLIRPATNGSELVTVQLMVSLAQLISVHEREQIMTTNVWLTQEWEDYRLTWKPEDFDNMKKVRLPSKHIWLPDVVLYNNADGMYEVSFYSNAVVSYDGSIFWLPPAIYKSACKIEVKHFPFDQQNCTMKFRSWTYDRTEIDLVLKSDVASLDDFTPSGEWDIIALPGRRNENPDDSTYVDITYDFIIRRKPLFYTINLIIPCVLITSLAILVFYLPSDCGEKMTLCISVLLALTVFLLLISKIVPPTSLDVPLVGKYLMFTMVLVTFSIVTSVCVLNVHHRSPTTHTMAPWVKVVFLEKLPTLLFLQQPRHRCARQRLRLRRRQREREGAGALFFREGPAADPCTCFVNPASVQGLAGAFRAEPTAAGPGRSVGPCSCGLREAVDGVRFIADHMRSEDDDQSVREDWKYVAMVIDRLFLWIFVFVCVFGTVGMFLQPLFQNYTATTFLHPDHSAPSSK
Experimental for α4β4 nicotinic receptor: All binding assays were performed according to procedures set forth in the University of North Carolina at Chapel Hill National Institute of Mental Health Psychoactive Drug Screening Program Assay Protocol Book (pp. 50-54; PI: Bryan L. Roth MD, PhD).
Nicotinic receptors: α2β2, α2β4, α3β2, α3β4, α4β2, α4β4, endogenous α4β2. Assay buffer: 50 mM Tris-HCl, pH 7.4. Membrane fraction source: Stably transfected cell lines (e.g., HEK293, COS, CHO, NIH3T3) (α2β2, α2β4, α3β2, α3β4, α4β2, α4β4) or rat forebrain (α4β2).
Aliquots (50 μl) of radioligand were dispensed into the wells of a 96-well plate containing 100 μl of assay buffer. Then, duplicate 50-0 aliquots of the test and reference compound dilutions were added. […]
The 250-μl reactions were incubated at room temperature and shielded from light (to prevent photolysis of light-sensitive ligands) for 4 hours, then harvested by rapid filtration onto Whatman GF/B glass fiber filters pre-soaked with 0.5% polyethyleneimine using a 96-well Brandel harvester. […] The tubes were capped, labeled, and counted by liquid scintillation counting. […]

Regarding `OCCCCC#Cc1cncc(OC[C@@H]2CCN2)c1` [AMOP—H—OH], the “effects in the forced swim test as indicated by a reduction in immobility time” value (“effects … by a reduction in immobility time” for short) in the experiment with male Balb/cJ mice (mouse, in vivo, ip) is listed as “positive effects”. Besides, the “Average Immobility Time” value in the experiment with male Balb/cJ mice (mouse, in vivo, ip, 0.3 mg/kg) was 116.7 s; in the experiment with male Balb/cJ mice (mouse, in vivo, ip, 1 mg/kg) it was 20.2** seconds; in the experiment on male Balb/cJ mice (mouse, in vivo, ip, 10 mg/kg) it was 5.3** seconds.
In general, inhibition refers to the drop in the measured response relative to a control, in per cent. `OCC[C@H]1C[C@@H]1c1cncc(OC[C@@H]2CCN2)c1` [Example 2, 2-[(1R,2S)-2-[5-[(2(S)-Azetidinyl)methoxy]-3-pyridyl]cyclopropyl]ethanol]: the “effects … by a reduction in immobility time” value in the experiment on male Balb/cJ mice (mouse, in vivo, ip) is listed as “positive effects”. In addition, the “Average Immobility Time” value with male Balb/cJ mice (mouse, in vivo, ip, 10 mg/kg) is on record as 44** seconds; in the experiment with male Balb/cJ mice (mouse, in vivo, ip, 20 mg/kg) it was 7** seconds. The inhibition at 0.1 µM in experiment [1] was in the range of 59 to 100%.
As to `c1ccc(OC[C@H]2C[C@@H]2c2cncc(OC[C@@H]3CCN3)c2)cc1` [Example 11, 3-[(2(S)-Azetidinyl)methoxy]-5-[(1S,2S)-2-(phenoxymethyl)cyclopropyl]pyridine], in experiment [1], the inhibition at 0.1 µM fell in the range of 59 to 100%.
The same measure, in the same setting: as for `c1cncc(OC[C@H]2C[C@@H]2c2cncc(OC[C@@H]3CCN3)c2)c1` [Example 12, 3-[(2(S)-Azetidinyl)methoxy]-5-[(1S,2S)-2-[(3-pyridyloxy)methyl]cyclopropyl]pyridine], the figure is 59 to 100%; as for `c1ccc(COC[C@H]2C[C@@H]2c2cncc(OC[C@@H]3CCN3)c2)nc1` [Example 14, 3-[(2(S)-Azetidinyl)methoxy]-5-[(1S,2S)-2-[(2-pyridinylmethoxy)methyl]cyclopropyl]pyridine], 59 to 100%.
Regarding `OCCCc1cccc(-c2cncc(OC[C@@H]3CCN3)c2)c1` [Example 15c, 3-[3-[5-[(2(S)-Azetidinyl)methoxy]-3-pyridyl]phenyl]-1-propanol], the “change in immobility time compared to the vehicle” value in the experiment on male Balb/cJ mice (mouse, in vivo) was “did not show any change”. Further, the “reduction in immobility time compared to vehicle” value in the experiment with male Balb/cJ mice (mouse, in vivo) is 24.5 s. For the same molecule, the “effects … by a reduction in immobility time” value in the experiment on male Balb/cJ mice (mouse, in vivo, ip) is “positive effects”. Also, the “Average Immobility Time” value with male Balb/cJ mice (mouse, in vivo, ip, 5 mg/kg) is 110.6 s; with male Balb/cJ mice (mouse, in vivo, ip, 10 mg/kg) it was 105.1** seconds and 85.3** seconds; in the experiment on male Balb/cJ mice (mouse, in vivo, ip, 20 mg/kg), 49.7** seconds. Further, in experiment [1], the inhibition at 0.1 µM lay in the range of 59 to 100%.
As for `OCCCc1ccc(-c2cncc(OC[C@@H]3CCN3)c2)cc1` [Example 15d], in experiment [1], the inhibition at 0.1 µM was in the range of 59 to 100%.
The same measure, in the same setting: the figure for `OCCCc1cccc(-c2cncc(OC[C@H]3CCN3)c2)c1` [Example 19, 3-[3-[5-[(2(R)-Azetidinyl)methoxy]-3-pyridyl]phenyl]-1-propanol] is 59 to 100%; for `CC(=O)NCCCc1cccc(-c2cncc(OC[C@@H]3CCN3)c2)c1` [Example 22, N-(3-[3-[5-[(2(S)-Azetidinyl)methoxy]-3-pyridyl]phenyl]propyl]acetamide] it is 59 to 100%; for `OCCc1cccc(-c2cncc(OC[C@@H]3CCN3)c2)c1` [Example 24, 2-[3-[5-[(2(S)-Azetidinyl)methoxy]-3-pyridyl]phenyl]ethanol] it is 59 to 100%.
For `c1ccc(COCCc2cccc(-c3cncc(OC[C@@H]4CCN4)c3)c2)cc1` [Example 27, 3-[((2S)-Azetidinyl)methoxy]-5-[3-[2-(benzyloxy)ethyl]phenyl]pyridine], in experiment [1], the inhibition at 0.1 µM lay in the range of 59 to 100%.
Still for that read-out and setting: as for `OCc1cc(-c2cncc(OC[C@@H]3CCN3)c2)on1` [Example 37, 5-[5-(2(S)-Azetidinylmethoxy)-3-pyridyl]-3-isoxazolylmethanol], the figure is 59 to 100%; as for `CN1CCC[C@H]1COc1cncc(-c2cc(CCCOc3ccccc3)no2)c1` [Example 41, 3-[(1-Methyl-2(S)-pyrrolidinyl)methoxy]-5-[3-(3-phenoxypropyl)-5-isoxazolyl]pyridine Hydrochloride], 59 to 100%.
As to `c1ncc(N2CC3CC3C2)cc1OC[C@@H]1CCN1` (stereo partly drawn) [Example 46, 3-[5-[(2(S)-Azetidinyl)methoxy]-3-pyridyl]-3-azabicyclo[3.1.0]hexane], the inhibition at 0.1 µM in experiment [1] was in the range of 59 to 100%.
On the same count and under the same terms, as for `c1ccc(COCCC2CCN(c3cncc(OC[C@@H]4CCCN4)c3)CC2)cc1` [Example 51, 3-[4-[2-(Benzyloxy)ethyl]-1-piperidinyl]-5-[(2(S)-pyrrolidinyl)methoxy]pyridine], the figure is 59 to 100%; as for `c1ccc(OCCC2CCN(c3cncc(OC[C@@H]4CCCN4)c3)CC2)cc1` [Example 58, 3-[4-(2-Phenoxyethyl)-1-piperidinyl]-5-[(2(S)-pyrrolidinyl)methoxy]pyridine], 8 to 28%; as for `c1ccc(COCCC2CCN(c3cncc(OC[C@H]4CCCN4)c3)CC2)cc1` [Example 62, 3-[4-[2-(Benzyloxy)ethyl]-1-piperidinyl]-5-[(2(R)-pyrrolidinyl)methoxy]pyridine], 8 to 28%.
Still for that read-out and setting: as for `Oc1ccc(OCCC2CCN(c3cncc(OC[C@@H]4CCCN4)c3)CC2)cc1` [Example 70, 4-[2-[1-[5-[(2(S)-Pyrrolidinyl)methoxy]-3-pyridyl]-4-piperidinyl]ethoxy]phenol], the figure is 8 to 28%.
Turning to `CN[C@H]1CC[C@@H](c2ccc(Cl)c(Cl)c2)c2ccccc21` [Sertraline, sertraline, reference compound], the “Average Immobility Time” value in the experiment with male Balb/cJ mice (Table 2, 20 mg/kg i.p., 30 min before test, 6 min trial, vehicle 126.3) is on record as 11.99** seconds; with male Balb/cJ mice (Table 4, 10 mg/kg i.p., 30 min before test, 6 min trial, vehicle 115.2), 23.7** seconds; in the experiment with male Balb/cJ mice (Table 5, 10 mg/kg i.p., 30 min before test, 6 min trial, vehicle 104.9) it was 47.8** seconds.
As a reminder, the Ki is the equilibrium dissociation constant of an inhibitor or competing ligand from its target. The molecule `OCC[C@H]1C[C@@H]1c1cncc(OC[C@@H]2CCN2)c1` [drawing 418] displayed a Ki at α4β4 nicotinic receptor of 0.083 µM.

The record behind these values is patent US20130184313A1, “NICOTINIC ACETYLCHOLINE RECEPTOR LIGANDS AND THE USES THEREOF” (The Board of Trustees of the University of Illinois, priority 2009, published 2013).
